Laboratory results: PubChem BioAssay AID330 (DTP/NCI, 2004)
Several values for one entry are separate records, joined by “and”; a condition that tells them apart may be missing. Equal entries are not always repeated. Toxic doses and inconclusive results are not listed. Rule for the calls: active = survival T/C of 150% or more; inactive = T/C below 125% in these data.

Tested on: P388 leukemia ip, CD2F1 mice, survival T/C
Experiment: NCI In Vivo Anticancer Drug Screen. Data for tumor model P388 Leukemia (intraperitoneal) in CD2F1 (CDF1) mice
Conditions: endpoint: median survival time, higher = longer survival
Summary of the method: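 Mice carrying the transplanted tumor received test compound or vehicle. Survival was recorded in each group, and the value is the treated-group measurement divided by that of the vehicle-treated control group.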

[1] = dose: 4.0 mg/kg/injection, schedule: Q01DX009 (ip), vehicle: acid diluted with saline
[2] = dose: 8.0 mg/kg/injection, schedule: Q01DX009 (ip), vehicle: acid diluted with saline
[3] = dose: 16.0 mg/kg/injection, schedule: Q01DX009 (ip), vehicle: acid diluted with saline
[4] = dose: 60.0 mg/kg/injection, schedule: Q01DX005 (ip), vehicle: saline with Tween-80
[5] = dose: 120.0 mg/kg/injection, schedule: Q01DX005 (ip), vehicle: saline with Tween-80
[6] = dose: 240.0 mg/kg/injection, schedule: Q01DX005 (ip), vehicle: saline with Tween-80
[7] = dose: 25.0 mg/kg/injection, schedule: Q01DX009 (ip), vehicle: saline with Tween-80
[8] = dose: 50.0 mg/kg/injection, schedule: Q01DX009 (ip), vehicle: saline with Tween-80
[9] = dose: 100.0 mg/kg/injection, schedule: Q01DX009 (ip), vehicle: saline with Tween-80
[10] = dose: 200.0 mg/kg/injection, schedule: Q01DX009 (ip), vehicle: saline with Tween-80
[11] = dose: 50.0 mg/kg/injection, schedule: Q01DX009 (ip), vehicle: Klucel (hydroxypropylcellulose) (HPC)
[12] = dose: 50.0 mg/kg/injection, schedule: Q01DX005 (ip), vehicle: saline with Tween-80
[13] = dose: 100.0 mg/kg/injection, schedule: Q01DX005 (ip), vehicle: saline with Tween-80
[14] = dose: 200.0 mg/kg/injection, schedule: Q01DX005 (ip), vehicle: saline with Tween-80

Measured: T/C

CCCNCCNc1ccc(NCCNCCC)c2c1C(=O)c1ccccc1C2=O
inactive: [1] 104 % of control | [2] 112 % of control | dose: 12.5 mg/kg/injection, schedule: Q01DX009 (ip), vehicle: distilled water + Tween-80 120 % of control | [3] 120 % of control | dose: 25.0 mg/kg/injection, schedule: Q01DX009 (ip), vehicle: distilled water + Tween-80 118 % of control | dose: 32.0 mg/kg/injection, schedule: Q01DX009 (ip), vehicle: acid diluted with saline 112 % of control | dose: 100.0 mg/kg/injection, schedule: Q01DX009 (ip), vehicle: distilled water + Tween-80 124 % of control

COC(=O)C1(CS(C)=O)NC(=S)NC(=O)C1C#N (centres undefined)
inactive: [4] 106 % of control | [5] 99 % of control | [6] 97 % of control

CCOC(=O)CCN(C)C1CCCCC1C(=O)OCC (centres undefined)
inactive: dose: 25.0 mg/kg/injection, schedule: Q01DX009 (ip), vehicle: saline 100 % of control | dose: 50.0 mg/kg/injection, schedule: Q01DX009 (ip), vehicle: saline 101 % of control | dose: 100.0 mg/kg/injection, schedule: Q01DX009 (ip), vehicle: saline 107 % of control

Cn1cc(Cl)n(C)c(=O)c1=O
inactive: dose: 6.25 mg/kg/injection, schedule: Q01DX001 (ip), vehicle: saline with Tween-80 104 % of control | dose: 12.5 mg/kg/injection, schedule: Q01DX001 (ip), vehicle: saline with Tween-80 104 % of control | dose: 25.0 mg/kg/injection, schedule: Q01DX001 (ip), vehicle: saline with Tween-80 118 % of control

COc1cc2c(cc1OC)C(=O)Cc1ccc(OC)c(O)c1CN(C)CC2
inactive: dose: 2.25 mg/kg/injection, schedule: Q01DX009 (ip), vehicle: Klucel (hydroxypropylcellulose) (HPC) 111 % of control | dose: 4.5 mg/kg/injection, schedule: Q01DX009 (ip), vehicle: Klucel (hydroxypropylcellulose) (HPC) 108 % of control | dose: 9.0 mg/kg/injection, schedule: Q01DX009 (ip), vehicle: Klucel (hydroxypropylcellulose) (HPC) 118 % of control | dose: 18.0 mg/kg/injection, schedule: Q01DX009 (ip), vehicle: Klucel (hydroxypropylcellulose) (HPC) 108 % of control

O=C1c2ccccc2C(=O)c2c(NCCN3CCNCC3)ccc(NCCN3CCNCC3)c21
inactive: [1] 103 % of control | [2] 109 % of control | dose: 12.5 mg/kg/injection, schedule: Q01DX009 (ip), vehicle: water 107 % of control | [3] 120 % of control | dose: 50.0 mg/kg/injection, schedule: Q01DX009 (ip), vehicle: water 123 % of control

COc1cc(C(=O)NC2CC2)cc(OC)c1OC
inactive: [7] 101 % of control | [8] 104 % of control | [9] 107 % of control | [10] 110 % of control

FC(F)(F)C1(C(F)(F)F)CC2COc3ccccc3C2=N1 (centres undefined)
inactive: dose: 50.0 mg/kg/injection, schedule: Q04DX002 (ip), vehicle: suspension in saline 100 % of control | dose: 100.0 mg/kg/injection, schedule: Q04DX002 (ip), vehicle: suspension in saline 99 % of control | dose: 200.0 mg/kg/injection, schedule: Q04DX002 (ip), vehicle: suspension in saline 100 % of control

Nc1ccc(C(=O)CCl)c(Cl)c1
inactive: dose: 12.5 mg/kg/injection, schedule: Q01DX009 (ip), vehicle: Klucel (hydroxypropylcellulose) (HPC) 107 % of control | dose: 25.0 mg/kg/injection, schedule: Q01DX009 (ip), vehicle: Klucel (hydroxypropylcellulose) (HPC) 110 % of control | [11] 110 % of control and 116 % of control

COC1C=COC2(C)Oc3c(C)c(O)c4c(O)c(c(C5SCCS5)c(O)c4c3C2=O)NC(=O)/C(C)=C\C=CC(C)C(O)C(C)C(O)C(C)C(OC(C)=O)C1C (centres undefined)
inactive: [7] 100 % of control and 92 % of control | [8] 105 % of control and 106 % of control and 92 % of control | [9] 100 % of control and 108 % of control | [10] 109 % of control and 111 % of control and 115 % of control

CSC(=NCCCCCCCCN=C(NC#N)SC)NC#N
inactive: [11] 94 % of control | dose: 100.0 mg/kg/injection, schedule: Q01DX009 (ip), vehicle: Klucel (hydroxypropylcellulose) (HPC) 102 % of control | dose: 200.0 mg/kg/injection, schedule: Q01DX009 (ip), vehicle: Klucel (hydroxypropylcellulose) (HPC) 95 % of control

COc1cc(CC(O)c2cc(OC)c(OC)c(OC)c2)cc(OC)c1OC (centres undefined)
inactive: dose: 31.25 mg/kg/injection, schedule: Q01DX009 (ip), vehicle: saline + Tween-80 + alcohol 102 % of control | dose: 62.5 mg/kg/injection, schedule: Q01DX009 (ip), vehicle: saline + Tween-80 + alcohol 102 % of control | dose: 125.0 mg/kg/injection, schedule: Q01DX009 (ip), vehicle: saline + Tween-80 + alcohol 100 % of control | dose: 250.0 mg/kg/injection, schedule: Q01DX009 (ip), vehicle: saline + Tween-80 + alcohol 91 % of control

O=C1CC(=O)C(C(=O)c2ccccc2)N1 (centres undefined)
inactive: [12] 96 % of control | [13] 97 % of control | [14] 94 % of control

N#CC(Br)(CBr)COc1ccc(Cl)cc1Cl (centres undefined)
inactive: dose: 12.5 mg/kg/injection, schedule: Q01DX009 (ip), vehicle: saline with Tween-80 100 % of control | [7] 118 % of control | [8] 108 % of control

O=C(O)c1cccc(C(=O)O)c1Sc1ccccc1
inactive: dose: 100.0 mg/kg/injection, schedule: Q01DX001 (ip), vehicle: saline with Tween-80 103 % of control | dose: 200.0 mg/kg/injection, schedule: Q01DX001 (ip), vehicle: saline with Tween-80 100 % of control | dose: 400.0 mg/kg/injection, schedule: Q01DX001 (ip), vehicle: saline with Tween-80 94 % of control

O=S(=O)(OC1=C/[C@H](S(=O)(=O)c2ccccc2)/C=C\[C@H](S(=O)(=O)c2ccccc2)/C=C\1)c1ccccc1
inactive: [4] 97 % of control | [5] 93 % of control | [6] 91 % of control

C1CSCN1
inactive: dose: 50.0 mg/kg/injection, schedule: Q01DX005 (ip), vehicle: saline 107 % of control | dose: 100.0 mg/kg/injection, schedule: Q01DX005 (ip), vehicle: saline 100 % of control | dose: 200.0 mg/kg/injection, schedule: Q01DX005 (ip), vehicle: saline 115 % of control

C=CCOc1cc2c(cc1Cc1ccc3c(c1)OCO3)OCO2
inactive: [12] 100 % of control | [13] 100 % of control | [14] 103 % of control

CC(NNC(=S)N1CCCC1)c1cccc[n+]1[O-] (centres undefined)
inactive: [12] 101 % of control | [13] 100 % of control | [14] 94 % of control

Cc1ccn2ccnc2c1
inactive: dose: 50.0 mg/kg/injection, schedule: Q01DX009 (ip), vehicle: acetone 102 % of control | dose: 100.0 mg/kg/injection, schedule: Q01DX009 (ip), vehicle: acetone 113 % of control

CN(C)C(=O)N1OC(CN)CC1=O (centres undefined)
inactive: dose: 60.0 mg/kg/injection, schedule: Q01DX005 (ip), vehicle: Klucel (hydroxypropylcellulose) (HPC) 105 % of control | dose: 120.0 mg/kg/injection, schedule: Q01DX005 (ip), vehicle: Klucel (hydroxypropylcellulose) (HPC) 104 % of control | dose: 240.0 mg/kg/injection, schedule: Q01DX005 (ip), vehicle: Klucel (hydroxypropylcellulose) (HPC) 105 % of control

O=C1OC(C2OC(=O)C(=O)C2C(=O)c2ccccc2)C(C(=O)c2ccccc2)C1=O (centres undefined)
inactive: [4] 111 % of control | [5] 108 % of control | [6] 108 % of control

CC(C)[C@](O)(C(=O)OCC1CC[N+]2([O-])CC[C@@H](O)C12)[C@H](C)O (some centres undefined)
inactive: dose: 187.5 mg/kg/injection, schedule: Q01DX009 (ip), vehicle: saline 94 % of control | dose: 375.0 mg/kg/injection, schedule: Q01DX009 (ip), vehicle: saline 106 % of control | dose: 750.0 mg/kg/injection, schedule: Q01DX009 (ip), vehicle: saline 95 % of control | dose: 1500.0 mg/kg/injection, schedule: Q01DX009 (ip), vehicle: saline 106 % of control
